Reference: patent publication US8207176B2 (Glaxo Group Limited, priority 2005, dated 2012)
Where a name gives a salt, the structure may show the parent alone.

Test system: influx of neutrophils to the lung in LPS-challenged rats
Assay: Rat LPS neutrophilia model
Assay type: in vivo
Conditions: intratracheal, LPS aerosol 100 ug/ml 15 min, lavage 4 hours later, in at least one of the range of conditions tested, significant p<0.05, nonsignificant p>0.05
Method: The effect of compounds on the influx of neutrophils to the lung in LPS-challenged rats is evaluated as follows. The test compound is suspended in one of the following solutions: 0.5% tween 80/PBS, 0.5% tween 80/saline, 10% EtOH/saline (with pH adjusted to 2.0, or 8.0 with HCl, or unadjusted), Saline @ pH 2.0, 6.5 or 8.0, 0.5% Tragacanth, 1% DMSO/20% Encapsin/Saline, or acidified 5% Tragacanth. The suspension process may be aided by the use of a glass homogenizer. For intratracheal administration, the animals are anesthetized with inhaled isoflurane and placed in a supine position, the trachea is intubated with a steel gavage needle (1.5 inch, 22 gauge, small ball) or a Penn-Century Microsprayer Aerosolizer (model IA-IB) and 200 ul of dosing solution is delivered. The animals are visually monitored during the recovery process, which typically occurs within two minutes. It is noted that the test compounds may be alternatively administered via the microsprayer in a dry powder blend with a suitable excipient, such as lactose.
Rats treated with compound or vehicle (15 min-24 hours pretreatment) are exposed to an LPS aerosol (100 ug/ml) for 15 min. Four hours later the rats are euthanized with pentobarbital (100 mg/kg, i.p.) and the airways are lavaged with 5 washes of 5 ml of phosphate buffered saline. The harvested cells are stained (Diffquick) and counted to determine total and differential cell data. […] Inhibition of neutrophil levels relative to no compound controls is calculated based on the differential counts.
The data is obtained as % inhibition using a particular concentration and pretreat time.

Compound | inhibition of neutrophilia (neutrophil levels in lung lavage relative to no compound controls)
Cc1ccc(C(=O)Nc2nccs2)cc1-c1nc(N2CCC(N)CC2)nc2c1ccc(=O)n2-c1c(F)cccc1F [Example 73, 3-[2-(4-amino-1-piperidinyl)-8-(2,6-difluorophenyl)-7-oxo-7,8-dihydropyrido[2,3-d]pyrimidin-4-yl]-4-methyl-N-1,3-thiazol-2-ylbenzamide] | statistically significant inhibition
CCN(CC)CCCNc1nc(-c2cc(C(=O)NCCF)ccc2C)c2ccc(=O)n(-c3c(F)cccc3F)c2n1 [Example 133, 3-[2-{[3-(diethylamino)propyl]amino}-8-(2,6-difluorophenyl)-7-oxo-7,8-dihydropyrido[2,3-d]pyrimidin-4-yl]-N-(2-fluoroethyl)-4-methylbenzamidetrifluoroacetate] | statistically significant inhibition
Cc1ccc(C(=O)NC(C)C)cc1-c1nc(N2CCC(N)CC2)nc2c1ccc(=O)n2-c1c(F)cccc1F [Example 68, 3-[2-(4-amino-1-piperidinyl)-8-(2,6-difluorophenyl)-7-oxo-7,8-dihydropyrido[2,3-d]pyrimidin-4-yl]-4-methyl-N-(1-methylethyl)benzamide] | statistically significant inhibition
CCN(CC)CCCNc1nc(-c2cc(C(=O)NCCOC)ccc2C)c2ccc(=O)n(-c3c(F)cccc3F)c2n1 [Example 134, 3-[2-{[3-(diethylamino)propyl]amino-}8(2,6-difluorophenyl)-7-oxo-7,8-dihydropyrido[2,3-d]pyrimidin-4-yl]-4-methyl-N-[2-(methyloxy)ethyl]benzamidetrifluoroacetate] | statistically nonsignificant inhibition
Cc1ccc(C(=O)NCCc2ccccc2)cc1-c1nc(NC2CC(C)(C)NC(C)(C)C2)nc2c1ccc(=O)n2-c1c(F)cccc1F [Example 28, 3-{8-(2,6-difluorophenyl)-7-oxo-2-[(2,2,6,6-tetramethyl-4-piperidinyl)amino]-7,8-dihydropyrido[2,3-d]pyrimidin-4-yl}-4-methyl-N-(2-phenylethyl)benzamide] | statistically nonsignificant inhibition
CCN(CC)CCCNc1nc(-c2cc(C(=O)NC)ccc2C)c2ccc(=O)n(-c3c(F)cccc3F)c2n1 [Example 119, 3-[2-{[3-(diethylamino)propyl]amino}-8-(2,6-difluorophenyl)-7-oxo-7,8-dihydropyrido[2,3-d]pyrimidin-4-yl]-N,4-dimethylbenzamide] | statistically significant inhibition
CCCCNC(=O)c1ccc(C)c(-c2nc(N3CCC(N4CCC(C)CC4)CC3)nc3c2ccc(=O)n3-c2c(F)cccc2F)c1 [Example 167, N-butyl-3-[8-(2,6-difluorophenyl)-2-(4-methyl-1,4′-bipiperidin-1′-yl)-7-oxo-7,8-dihydropyrido[2,3-d]pyrimidin-4-yl]-4-methylbenzamide] | statistically significant inhibition
Cc1ccc(C(=O)Nc2ccc(F)cc2)cc1-c1nc(N2CCC(N3CCC(C)CC3)CC2)nc2c1ccc(=O)n2-c1c(F)cccc1F [Example 174, 3-[8-(2,6-difluorophenyl)-2-(4-methyl-1,4′-bipiperidin-1′-yl)-7-oxo-7,8-dihydropyrido[2,3-d]pyrimidin-4-yl]N-(4-fluorophenyl)-4-methylbenzamide] | inactive
CNCCNc1nc(-c2cc(C(=O)NCC3CC3)ccc2C)c2ccc(=O)n(-c3c(F)cccc3F)c2n1 [Example 4] | statistically significant inhibition
CCN(CC)CCCNc1nc(-c2cc(C(=O)NC3CCC3)ccc2C)c2ccc(=O)n(-c3c(F)cccc3F)c2n1 [Example 137, N-cyclobutyl-3-[2-{[3-(diethylamino)propyl]amino}-8-(2,6-difluorophenyl)-7-oxo-7,8-dihydropyrido[2,3-d]pyrimidin-4-yl]-4-methylbenzamide trifluoroacetate] | statistically significant inhibition
CCCNC(=O)c1cc(F)c(C)c(-c2nc(NCCCN(CC)CC)nc3c2ccc(=O)n3-c2c(F)cccc2F)c1 [Example 181, 3-[2-{[3-(diethylamino)propyl]amino}-8-(2,6-difluorophenyl)-7-oxo-7,8-dihydropyrido[2,3-d]-pyrimidin-4-yl]-5-fluoro-4-methyl-N-propylbenzamide] | statistically nonsignificant inhibition
CCNC(=O)c1ccc(C)c(-c2nc(N3CCC(N4CCC(C)CC4)CC3)nc3c2ccc(=O)n3-c2c(F)cccc2F)c1 [Example 173, 3-[8-(2,6-difluorophenyl)-2-(4-methyl-1,4′-bipiperidin-1′-yl)-7-oxo-7,8-dihydropyrido[2,3-d]pyrimidin-4-yl]-N-ethyl-4-methylbenzamide] | statistically significant inhibition
Cc1ccc(C(=O)Nc2ccc(F)cc2)cc1-c1nc(N(C)CCCN(C)C)nc2c1ccc(=O)n2-c1c(F)cccc1F [Example 115, 3-{8-(2,6-difluorophenyl)-2-[[3-(dimethylamino)propyl](methyl)amino]-7-oxo-7,8-dihydropyrido[2,3-d]pyrimidin-4-yl}-N-(4-fluorophenyl)-4-methylbenzamide] | statistically nonsignificant inhibition
CNCCNc1nc(-c2cc(C(=O)Nc3nccs3)ccc2C)c2ccc(=O)n(-c3c(F)cccc3F)c2n1 [Example 61, 3-(8-(2,6-difluorophenyl)-2-{[2-(methylamino)ethyl]amino}-7-oxo-7,8-dihydropyrido[2,3-d]pyrimidin-4-yl)-4-methyl-N-1,3-thiazol-2-ylbenzamide] | statistically significant inhibition
CNCCNc1nc(-c2cc(C(=O)NCc3ccccc3)ccc2C)c2ccc(=O)n(-c3c(F)cccc3F)c2n1 [Example 59, 3-(8-(2,6-difluorophenyl)-2-{[2-(methylamino)ethyl]amino}-7-oxo-7,8-dihydropyrido[2,3-d]pyrimidin-4-yl)-4-methyl-N-(phenylmethyl)benzamide] | statistically significant inhibition
CNCCNc1nc(-c2cc(C(=O)Nc3ccc(F)cc3)ccc2C)c2ccc(=O)n(-c3c(F)cccc3F)c2n1 [Example 60, 3-(8-(2,6-difluorophenyl)-2-{[2-(methylamino)ethyl]amino}-7-oxo-7,8-dihydropyrido[2,3-d]pyrimidin-4-yl)-N-(4-fluorophenyl)-4-methylbenzamide] | statistically significant inhibition
CNCCNc1nc(-c2cc(C(=O)NC3CCCC3)ccc2C)c2ccc(=O)n(-c3c(F)cccc3F)c2n1 [Example 58, N-cyclopentyl-3-(8-(2,6-difluorophenyl)-2-{[2-(methylamino)ethyl]amino}-7-oxo-7,8-dihydropyrido[2,3-d]pyrimidin-4-yl)-4-methylbenzamide] | statistically significant inhibition
Cc1ccc(C(=O)NC2CC2)cc1-c1nc(N2CCC(N3CCC(C)CC3)CC2)nc2c1ccc(=O)n2-c1c(F)cccc1F [Example 178, N-cyclopropyl-3-[8-(2,6-difluorophenyl)-2-(4-methyl-1,4′-bipiperidin-1′-yl)-7-oxo-7,8-dihydropyrido[2,3-d]pyrimidin-4-yl]-4-methylbenzamide] | statistically nonsignificant inhibition
Cc1ccc(C(=O)NCC(C)C)cc1-c1nc(N2CCC(N3CCC(C)CC3)CC2)nc2c1ccc(=O)n2-c1c(F)cccc1F [Example 168, 3-[8-(2,6-difluorophenyl)-2-(4-methyl-1,4′-bipiperidin-1′-yl)-7-oxo-7,8-dihydropyrido[2,3-d]pyrimidin-4-yl]-4-methyl-N-(2-methylpropyl)benzamide] | inactive
CCN(CC)CCCNc1nc(-c2cc(C(=O)Nc3ccc(F)cc3)ccc2C)c2ccc(=O)n(-c3c(F)cccc3F)c2n1 [Example 160, 3-[2-{[3-(diethylamino)propyl]amino}-8-(2,6-difluorophenyl)-7-oxo-7,8-dihydropyrido[2,3-d]pyrimidin-4-yl]-N-(4-fluorophenyl)-4-methylbenzamide] | statistically significant inhibition
